Measured values: article PMC4340362 (ACS Chemical Biology, 2014)
Read-outs that look alike come from different tables or passages of the source.

Test system: MDA-MB-231 breast cancer cells
Assay: Quantitative scratch-wound
Format: cell-based
Settings: Homo sapiens

`C[C@@H]1O[C@@H](O[C@H]2C[C@@H](O)[C@]3(CO)[C@H]4[C@H](O)C[C@]5(C)[C@@H](C6=CC(=O)OC6)CC[C@]5(O)[C@@H]4CC[C@]3(O)C2)[C@H](O)[C@H](O)[C@H]1O` [Compound 1, ouabain] was tested, and the IC50 (MDA-MB-231, read-out: Cell migration IC50) was 173 nM and the IC50 (MDA-MB-231, read-out: cell migration) was 173 nM.
